# Source: patent US8629239B2, “Methylocystis strain SB2 materials and methods” (Iowa State University Research Foundation, Inc., priority 2010, dated 2014)
# Tests used:
# Methylocystis strain SB2 [1] = experiment: Nitrogen source utilization by strain SB2 with methane as carbon source; type: cell-based; conditions: methane as the carbon source
# Procedure: Many nitrogen sources were tested with methane as the carbon source: nitrate (as potassium nitrate), ammonia (as ammonium chloride), L-alanine, L-serine, L-isoluecine, L-proline, L-methionine, L-glutamine, L-asparagine, L-lysine, L-glycine, L-histidine, and L-arginine. […] The presence of nifH was confirmed using PCR using specific primers for nifH (Auman, et al., 2001; Zehr & McReynolds, 1989).
# [2] = dimensionless, at 30° C.; cited from earlier work
# Methylocystis strain SB2 [3] = experiment: Degradation of chlorinated hydrocarbons by Methylocystis strain SB2 grown on ethanol or methane; type: cell-based; conditions: individual chlorinated hydrocarbons
# Procedure: The ability of Methylocystis strain SB2 to degrade chlorinated hydrocarbon, including trichloroethylene (TCE), trans-dichloroethylene (t-DCE), vinyl chloride (VC), 1,1,1-trichloroethane (1,1,1-TCA), dichloromethane (DCM), and chloroform (CF), was compared when Methylocystis strain SB2 was grown on ethanol relative to when it was grown with methane.
# Methylocystis strain SB2 [4] = experiment: Growth of Methylocystis strain SB2 on carbon sources; type: cell-based; conditions: for OD600 reached (final / max OD600) / growth rate: NMS medium, 10 μM copper, 30° C.; for growth rate: exponential kinetics; for growth on substrate as carbon source: substrates 0.05%, methanol 0.01-1% (v/v), acetate 0.01-0.5% (w/v), ethanol 0.05-1% (v/v)
# Procedure: Methylocystis strain SB2 was incubated in 50 ml of NMS medium in 250 ml flask supplemented with 10 μM of copper as CuCl2. The flasks were incubated at 30° C. with shaking at 250 rpm. Cell growth was monitored by measuring OD600 using a Spectronic-20 (Milton Roy Company, USA).
# Growth of strain SB2 on Alternative Carbon Sources: Growth on methanol (0.05% v/v) and methylamine, glucose, fructose, sucrose, galactose, xylose, arabinose, and maltose (all at a concentration of 0.05% w/v) was tested, as were the organic acids formate, pyruvate, succinate, malate, citrate and oxalate (all added as sodium salts at a concentration of 0.05% w/v).
# At this pH, 99% of the added acetate exists as the dissociated form. It is believed that undissociated acetate is transferred across the cell membrane, thus the proton motive force is dissipated to transport acetate into the cell (Axe and Bailey, 1995), which inhibits microbial growth.
# Methylocystis strain SB2 [5] = experiment: Growth of Methylocystis strain SB2 in the presence of chlorinated ethenes; type: cell-based; conditions: grown on methane in the absence of chlorinated ethenes
# Procedure: Methylocystis strain SB2 was initially grown on methane (1:1 methane-to-air ratio) to the mid-exponential phase (OD600 of 0.3-0.4 as measured using a Spectronic 20 spectrometer (Milton Roy Company, USA)). […] The cultures were then diluted to an OD600 of 0.06 with fresh NMS medium. Five ml aliquots were added to serum vials specially fabricated to measure growth as OD600 over time and respective growth substrates were added. For addition of methane, 5 ml of headspace was replaced with >99.99% methane after sealing the vials for a final concentration of 15% v/v in the headspace. […] Growth was monitored by measuring absorbance at 600 nm (OD600).
# For all three growth conditions, Methylocystis strain SB2 was initially grown on methane to the mid-exponential phase (OD600 nm of 0.3-0.4). This cell suspension was flushed with compressed air as described above to remove residual methane and diluted to OD600<0.03 in 50 ml of fresh media in 250 ml Erlenmeyer flask. For growth on methane, methane was added to the headspace to an air:methane ratio of 1:1 and the cells were grown back to an OD600 of ca. 0.06. […] The growth of Methylocystis strain SB2 was monitored until the cell growth was no longer observed.
# [6] = system: Methylocella silvestris BL2; conditions: Dedysh, et al. (2005); cited from earlier work
# Methylocystis strain SB2 [7] = experiment: Growth yield and carbon conversion efficiency, Methylocystis strain SB2; type: cell-based; conditions: NMS, 10 μM copper, standard error in parentheses
# Procedure: For Table 1, the molar growth yield (g dry cell▪(mol substrate^−1)) and the efficiency of carbon conversion to cell material (g cell carbon▪(g substrate carbon)^−1) were determined in triplicate 5 ml of NMS medium supplemented with 10 μM of copper as CuCl2 using specially constructed 32.5 ml vials containing a CH4/air mixture (1:2 ratio in the headspace), or 0.10% (w/v) of sodium acetate as a sole carbon source. CH4 and acetate concentrations were measured using gas chromatography equipped with a FID (HP 5890 Series II) and ion chromatography (Dionex DX100, Sunnyvale, Calif.), respectively. Cell growth was monitored by measuring OD600 using a Spectronic-20 spectrometer (Milton Roy Company, USA). Turbidity was correlated to protein concentration using the Bio-Rad Protein Assay (Bio-Rad Laboratories, Richmond, Calif.) with bovine serum albumin (BSA) as the standard following manufacturer's instructions. To estimate the carbon content of biomass it was assumed that dry biomass was 50% protein, and C4H8O2N was the biomass elemental composition (Leak and Dalton, 1986).
# [8] = Abiotic loss of chlorinated ethenes from serum vials with sterile NMS medium; type: physicochemical; conditions: 40 μM each in 5 ml sterile NMS medium; 216 hours
# Procedure: Growth and degradation of chlorinated solvents. The growth of Methylocystis strain SB2 and degradation of the mixture of TCE, t-DCE, and VC were measured in three different conditions: methane, acetate, and acetate with acetylene (a selective inhibitor of both MMOs) (Prior and Dalton, 1985). The method used previously by Lee et al. (2006) and Yoon and Semrau (2008) was slightly modified for these assays. For all three growth conditions, Methylocystis strain SB2 was initially grown on methane to the mid-exponential phase (OD600 nm of 0.3-0.4). This cell suspension was flushed with compressed air as described above to remove residual methane and diluted to OD600<0.03 in 50 ml of fresh media in 250 ml Erlenmeyer flask. For growth on methane, methane was added to the headspace to an air:methane ratio of 1:1 and the cells were grown back to an OD600 of ca. 0.06. After the flask was flushed with compressed air as described earlier, five milliliter aliquots were transferred to serum vials specially fabricated to measure growth at OD600 over time as described earlier (Lee et al., 2006). Teflon-coated butyl-rubber stoppers (National Scientific Co., Duluth, Ga.) were used to seal the serum vials. After the serum vials were securely sealed, 5 ml of the air in headspace was replaced with 5 ml of methane to ensure sufficient methane for growth. For growth on acetate, 1 mM of sodium acetate (Im et al., 2010) instead of methane was added to the diluted cell suspension in 250-ml Erlenmeyer flasks. […] The growth of Methylocystis strain SB2 was monitored until the cell growth was no longer observed. The initial and final concentration of TCE, t-DCE, and VC were measured with HP5890 Series II gas chromatograph equipped with a 75 m DB-624 column with 0.53 mm internal diameter (J&W Scientific Co.). […] TCE and t-DCE were detected with an electron capture detector (ECD) with injector, oven, and detector temperatures set to 160, 120, and 250° C., respectively. VC was detected with a flame ionization detector (FID) with injector, oven, and detector temperatures set to 140, 120, and 250° C., respectively.
# [9] = system: Methylosinus trichosporium OB3b expressing pMMO; conditions: 50 μM each of VC, t-DCE, and TCE; 110 hours of growth on methane; Lee et al., 2006; cited from earlier work
# Methylocystis heyeri H2T = conditions: growth on acetate; Belova et al., 2010; cited from earlier work
# [10] = system: Methylocystis echinoides IMET 10491T; conditions: growth on acetate; Belova et al., 2010; cited from earlier work
# Methylocystis strain H2s = conditions: growth on acetate; Belova et al., 2010; cited from earlier work
# Methylocapsa aurea KYGT = conditions: growth on acetate; cited from earlier work
# Methylocystis strain SB2 [11] = experiment: Degradation of chlorinated ethenes by Methylocystis strain SB2 grown on methane or acetate; type: cell-based; conditions: SB2 grown on CH3COOH + C2H2 (acetylene); 40 μM each of TCE, t-DCE, and VC; 216 hours
# Procedure: Saturated stock solutions were prepared for TCE and t-DCE as described by Chang and Alvarez-Cohen (1996). Hamilton 1700 series gas-tight syringes (Hamilton, Reno, Nev.) were used to take aliquots from the stock solutions. Gaseous compounds, i.e., methane and VC, were transferred to gas bags before use. Aliquots were taken with Precision Lok gas-tight syringes purchased from Precision Sampling Corp (Baton Rouge, La.). The amount of chlorinated solvents to be added was calculated considering dimensionless Henry's constants at 30° C. […]
# The method used previously by Lee et al. (2006) and Yoon and Semrau (2008) was slightly modified for these assays. […] The growth of Methylocystis strain SB2 was monitored until the cell growth was no longer observed. The initial and final concentration of TCE, t-DCE, and VC were measured with HP5890 Series II gas chromatograph equipped with a 75 m DB-624 column with 0.53 mm internal diameter (J&W Scientific Co.). […] TCE and t-DCE were detected with an electron capture detector (ECD) with injector, oven, and detector temperatures set to 160, 120, and 250° C., respectively. VC was detected with a flame ionization detector (FID) with injector, oven, and detector temperatures set to 140, 120, and 250° C., respectively.
smiles,measurement,setting,value
O=[N+]([O-])O [nitrate],utilization as nitrogen source,Methylocystis strain SB2 [1],able to utilize
"ClCCl [DCM, dichloromethane]",Henry's constants,[2],0.125
same,degradation by strain SB2 grown on ethanol,Methylocystis strain SB2 [3],not
same,degradation by strain SB2 grown on methane,Methylocystis strain SB2 [3],not
CCO [ethanol],OD600 reached (final / max OD600),Methylocystis strain SB2 [4],0.45
same,growth rate,Methylocystis strain SB2 [4],0.022 ± 0.002 h⁻¹
same,growth on substrate as carbon source,Methylocystis strain SB2 [4],grew
O=C(O)[C@@H]1CCCN1 [L-proline],utilization as nitrogen source,Methylocystis strain SB2 [1],able to utilize
C [methane],specific growth rate,Methylocystis strain SB2 [5],0.057 h⁻¹
same,Efficiency of carbon conversion,[6],13.2 (±0.698) %
same,Growth yield,[6],3.59 (±0.104) g cell dry weight ▪(mol substrate^−1
same,OD600 reached (final / max OD600),Methylocystis strain SB2 [4],0.83
same,growth rate,Methylocystis strain SB2 [4],0.052 ± 0.004 h⁻¹
same,Efficiency of carbon conversion,Methylocystis strain SB2 [7],12.3 (±0.5) %
same,Growth yield,Methylocystis strain SB2 [7],3.13 (±0.12) g cell dry weight ▪(mol substrate^−1
CC[C@H](C)[C@H](N)C(=O)O [L-isoleucine],utilization as nitrogen source,Methylocystis strain SB2 [1],able to utilize
"Cl/C=C/Cl [t-DCE, trans-dichloroethylene]",Henry's constants,[2],0.474
same,"Abiotic loss, % (range of duplicate samples)",[8],0 (0) %
same,% degraded,[9],98%
same,degradation by strain SB2 grown on ethanol,Methylocystis strain SB2 [3],degraded
same,degradation by strain SB2 grown on methane,Methylocystis strain SB2 [3],degraded
CC(=O)O [acetate],Efficiency of carbon conversion,[6],40.1 (±2.43) %
same,Growth yield,[6],20.5 (±1.24) g cell dry weight ▪(mol substrate^−1
same,max OD410,Methylocystis heyeri H2T,0.14
same,OD600 reached (final / max OD600),Methylocystis strain SB2 [4],0.26
same,growth on substrate as carbon source,Methylocystis strain SB2 [4],grew
same,max OD410,[10],0.09
same,max OD410,Methylocystis strain H2s,~0.23
same,Efficiency of carbon conversion,Methylocystis strain SB2 [7],22.1 (±0.2) %
same,Growth yield,Methylocystis strain SB2 [7],12.0 (±0.13) g cell dry weight ▪(mol substrate^−1
same,max OD600,Methylocapsa aurea KYGT,0.3
"ClC(Cl)Cl [CF, chloroform]",Henry's constants,[2],0.189
same,degradation by strain SB2 grown on ethanol,Methylocystis strain SB2 [3],not
same,degradation by strain SB2 grown on methane,Methylocystis strain SB2 [3],degraded
"ClC=C(Cl)Cl [TCE, trichloroethylene]",Henry's constants,[2],0.458
same,"Abiotic loss, % (range of duplicate samples)",[8],5.2%
same,% degraded,[9],35%
same,degradation by strain SB2 grown on ethanol,Methylocystis strain SB2 [3],degraded
same,degradation by strain SB2 grown on methane,Methylocystis strain SB2 [3],degraded
same,% Chlorinated ethene degraded (range of duplicate samples),Methylocystis strain SB2 [11],3.3%
CO [methanol],growth on substrate as carbon source,Methylocystis strain SB2 [4],no growth
N [ammonium],utilization as nitrogen source,Methylocystis strain SB2 [1],able to utilize
"C=CCl [VC, vinyl chloride]",Henry's constants,[2],1.262
same,"Abiotic loss, % (range of duplicate samples)",[8],1.8%
same,% degraded,[9],97%
same,degradation by strain SB2 grown on ethanol,Methylocystis strain SB2 [3],degraded
same,degradation by strain SB2 grown on methane,Methylocystis strain SB2 [3],degraded
"CC(Cl)(Cl)Cl [1,1,1-TCA, 1,1,1-trichloroethane]",Henry's constants,[2],0.804
same,degradation by strain SB2 grown on ethanol,Methylocystis strain SB2 [3],degraded
same,degradation by strain SB2 grown on methane,Methylocystis strain SB2 [3],degraded
NC(=O)CC[C@H](N)C(=O)O [L-glutamine],utilization as nitrogen source,Methylocystis strain SB2 [1],able to utilize
